This is an account of results in PubChem BioAssay (NCI).

Among the test systems are HCC-2998 colon; T-47D breast; NCI-H226 lung; A549 NSCLC; LOX IMVI melanoma; NCI-H23 lung; NCI-H460 lung; OVCAR-5 ovarian; MCF7 breast; HS 578T breast.
Holding throughout (assay): NCI tumour cell line growth inhibition, 48 h

Each structure is given as a SMILES string.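 In this assay, cells in 96-well plates receive the compound at five concentrations for 48 hours. Endpoints are linearly interpolated between the surrounding concentrations. The concentration for 50% growth inhibition is given as GI50. Definition used: TGI = concentration required for complete inhibition of growth.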 Where a SMILES comes first, the peptide text is derived from it. [ ]: non-standard residue; d: D form. Where only a bound is given, the exact number is not on record here.

Turning to `COP(=O)(CP(=O)(OC)OCCC(C)CCC=C(C)C)OC` (stereo unspecified), the TGI in the assay with HCC-2998 colon, in the assay on T-47D breast, with NCI-H226 lung, in the assay with A549 NSCLC, in the assay with LOX IMVI melanoma and in the assay on NCI-H23 lung was greater than 100 µM throughout. The TGI in the assay on NCI-H460 lung, with OVCAR-5 ovarian and in the assay on MCF7 breast was greater than 100 µM each time.

For `O=C1CCCC1CC(CN1CCOCC1)Sc1nnnn1-c1ccccc1` (stereo unspecified), the TGI in the assay with HCC-2998 colon, with NCI-H226 lung, with A549 NSCLC, in the assay with LOX IMVI melanoma, with NCI-H23 lung and in the assay on OVCAR-5 ovarian was greater than 100 µM throughout. The compound also yielded a TGI in the assay on MCF7 breast greater than 100 µM.

Take `O=S(=O)(O)c1cc(S(=O)(=O)O)c2cc(N=Nc3ccc(N=Nc4ccc(/C=C/c5ccc(N=[N+]([O-])c6ccc(/C=C/c7ccc(N=Nc8ccc(N=Nc9ccc%10cc(S(=O)(=O)O)cc(S(=O)(=O)O)c%10c9)cc8)cc7S(=O)(=O)O)c(S(=O)(=O)O)c6)cc5S(=O)(=O)O)c(S(=O)(=O)O)c4)cc3)ccc2c1`: the TGI with HCC-2998 colon, with NCI-H226 lung, in the assay on A549 NSCLC, in the assay with LOX IMVI melanoma, in the assay on NCI-H23 lung and with NCI-H460 lung was greater than 100 µM throughout. For the same compound, the TGI in the assay with OVCAR-5 ovarian and with MCF7 breast was greater than 100 µM in each case.

On to `N#CC1=C(O)NC(O)=C(C#N)C1c1c(Cl)cccc1Cl`, for which the TGI in the assay on HCC-2998 colon was 60 µM; with NCI-H226 lung, 64.9 µM; with A549 NSCLC, greater than 100 µM; with LOX IMVI melanoma it was 32 µM; in the assay on NCI-H23 lung it was greater than 100 µM; in the assay with NCI-H460 lung, 61.5 µM. Further, the TGI in the assay with OVCAR-5 ovarian was found to be 98.5 µM.

Regarding `C=C1c2c(n(S(=O)(=O)c3ccccc3)c3ccccc23)[C@@]2(C(=O)OC)CC3C=CC2N1C3`, the TGI in the assay on HCC-2998 colon, in the assay on T-47D breast, with NCI-H226 lung, with A549 NSCLC, with LOX IMVI melanoma and in the assay on NCI-H23 lung was greater than 100 µM throughout. For the same compound, the TGI in the assay on NCI-H460 lung, with OVCAR-5 ovarian and in the assay on MCF7 breast was greater than 100 µM throughout.

For `COC(=O)/C=C1\C(CO[Si](C)(C)C(C)(C)C)OC(n2cc(C)c(=O)n(C)c2=O)C1O[Si](C)(C)C(C)(C)C` (stereo unspecified), the TGI with HS 578T breast, in the assay on NCI-H226 lung, in the assay on A549 NSCLC, in the assay with LOX IMVI melanoma, in the assay on NCI-H23 lung and with OVCAR-5 ovarian was greater than 100 µM each time. This compound returned a TGI with MCF7 breast greater than 100 µM.

Regarding `CC(=O)/C=C(/C)[O-].CC(=O)/C=C(/C)[O-].CC(=O)[CH-]C(C)=O.CC(=O)[CH-]C(C)=O.[Zr+4]`, the GI50 in the assay on HCC-2998 colon, with LOX IMVI melanoma, in the assay with NCI-H23 lung, with NCI-H460 lung and with OVCAR-5 ovarian was greater than 100 µM in each case. Further, the TGI in the assay on HCC-2998 colon, with LOX IMVI melanoma, in the assay on NCI-H23 lung, in the assay with NCI-H460 lung and in the assay on OVCAR-5 ovarian was greater than 100 µM throughout.

Turning to `CC(C)C[C@H](NC(=O)[C@H](CC(C)C)NC(=O)[C@@H](Cc1c[nH]c2ccccc12)NC(=O)[C@H](Cc1ccccc1)NC(=O)[C@@H](Cc1c[nH]c2ccccc12)NC(=O)[C@H](CCC(N)=O)NC(=O)[C@@H](CCC(N)=O)NC(=O)[C@@H]1CCCN1C(=O)[C@@H](CCCCN)NC(=O)[C@H]1CCCN1C(=O)[C@H](N)CCCN=C(N)N)C(N)=O` (H-[dR][dP][dK]P[dQ]Q[dW]F[dW]LL-NH2), the TGI with HCC-2998 colon, in the assay on NCI-H226 lung, in the assay with A549 NSCLC, with LOX IMVI melanoma, in the assay on NCI-H23 lung and in the assay on NCI-H460 lung was greater than 100 µM each time. The TGI with OVCAR-5 ovarian and in the assay on MCF7 breast was greater than 100 µM in each case.

As for `O=C1C(Cl)N(c2ccc([N+](=O)[O-])cc2)C1c1c[nH]c2ccccc12` (stereo unspecified), the TGI with A549 NSCLC, in the assay with NCI-H23 lung, in the assay on NCI-H460 lung and in the assay on OVCAR-5 ovarian was greater than 100 µM throughout.

With `CCCCCCc1ccc(CCCCCCCC(=O)O)o1`, the TGI in the assay on HCC-2998 colon, in the assay with T-47D breast, in the assay with NCI-H226 lung, in the assay with A549 NSCLC, in the assay on LOX IMVI melanoma and in the assay with NCI-H23 lung was greater than 100 µM each time. Further, the TGI in the assay with NCI-H460 lung, in the assay with OVCAR-5 ovarian and in the assay on MCF7 breast was greater than 100 µM throughout.

As for `CCCCCc1cc2cc3c(c(O)c2c(=O)[nH]1)C1(CCC3)C(=O)c2c(O)ccc(O)c2C1=O`, the TGI with HCC-2998 colon, in the assay on HS 578T breast, in the assay on NCI-H226 lung, in the assay on A549 NSCLC, in the assay on LOX IMVI melanoma and in the assay on NCI-H23 lung was greater than 100 µM in each case. Besides, the TGI with NCI-H460 lung, with OVCAR-5 ovarian and in the assay with MCF7 breast was greater than 100 µM throughout.

Regarding `Oc1ccc(-c2nc3cc(C(F)(F)F)ccc3s2)cc1`, the TGI was 32.6 µM with NCI-H226 lung; 29.7 µM in the assay on A549 NSCLC; 26.6 µM in the assay on LOX IMVI melanoma; 30.5 µM with NCI-H23 lung; 30.1 µM with NCI-H460 lung; 30.9 µM in the assay with OVCAR-5 ovarian. This compound also showed a TGI with MCF7 breast of 23.3 µM.

Regarding `Cc1cc(C)[n+]2c(c1)C=CC2`, the TGI with HCC-2998 colon is greater than 100 µM; with NCI-H226 lung, 60.8 µM; in the assay with A549 NSCLC it was greater than 100 µM; in the assay on LOX IMVI melanoma, greater than 100 µM; with NCI-H23 lung, 84.2 µM; in the assay on NCI-H460 lung, greater than 100 µM. The TGI with OVCAR-5 ovarian was greater than 100 µM.

On to `C=C(C)C1(Sc2ccc(OC)cc2)CC1`, for which the TGI was 34.2 µM in the assay on HCC-2998 colon; greater than 100 µM in the assay with T-47D breast; 54.7 µM with NCI-H226 lung; greater than 100 µM with A549 NSCLC; 33.4 µM in the assay with LOX IMVI melanoma; greater than 100 µM in the assay on NCI-H23 lung. In addition, the TGI in the assay with NCI-H460 lung, in the assay with OVCAR-5 ovarian and in the assay on MCF7 breast was greater than 100 µM each time.

`CN(C)C(=O)N1N[C@H](c2ccccc2)[C@@H]1c1ccccc1`: the TGI in the assay on HCC-2998 colon, with T-47D breast, in the assay on NCI-H226 lung, in the assay with A549 NSCLC, with LOX IMVI melanoma and in the assay with NCI-H23 lung was greater than 100 µM each time. In addition, the TGI in the assay with MCF7 breast is greater than 100 µM.

With `COCC(C#N)NC1CC(OC2CC(O)(C(=O)CO)Cc3c(O)c4c(c(O)c32)C(=O)c2c(OC)cccc2C4=O)OC(C)C1O` (stereo unspecified), the TGI in the assay with HCC-2998 colon turned out to be 0.471 µM; in the assay on HS 578T breast, 1.32 µM; in the assay on NCI-H226 lung, 0.117 µM; with LOX IMVI melanoma, 0.599 µM; with NCI-H23 lung, 0.682 µM; with NCI-H460 lung, 0.189 µM. Besides, the TGI amounted to 2.54 µM in the assay on OVCAR-5 ovarian and 0.836 µM in the assay on MCF7 breast.

Regarding `CC1(C)CC(=O)c2c(N)n[nH]c2C1`, the TGI in the assay on HCC-2998 colon, in the assay with NCI-H226 lung, in the assay on A549 NSCLC, in the assay with LOX IMVI melanoma, in the assay on NCI-H23 lung and in the assay with NCI-H460 lung was greater than 100 µM each time. Further, the TGI in the assay on OVCAR-5 ovarian and in the assay with MCF7 breast was greater than 100 µM in each case.

Regarding `COc1ccc(C2N(c3ccc(C)c(N=C=O)c3)C(=O)N3C(c4ccc(OC)cc4)N(c4ccc(C)c(N=C=O)c4)C(=O)N23)cc1` (stereo unspecified), the TGI in the assay with HCC-2998 colon, in the assay on NCI-H226 lung, with A549 NSCLC, in the assay on LOX IMVI melanoma, in the assay with NCI-H23 lung and in the assay with NCI-H460 lung was greater than 100 µM in each case. Also, the TGI in the assay on OVCAR-5 ovarian and with MCF7 breast was greater than 100 µM each time.

Turning to `COc1cc(C2c3cccc4cccc(c34)C3CCC(=O)N32)cc(OC)c1O` (stereo unspecified), the TGI in the assay on T-47D breast, in the assay on NCI-H226 lung, in the assay with A549 NSCLC, in the assay with NCI-H23 lung, in the assay with NCI-H460 lung and in the assay on OVCAR-5 ovarian was greater than 50 µM throughout. Also, in the assay with MCF7 breast, the TGI is greater than 50 µM.

On to `O=C1Sc2ccccc2C(=O)N2CCSC12` (stereo unspecified), for which the TGI with HCC-2998 colon, in the assay on LOX IMVI melanoma, in the assay on NCI-H23 lung, in the assay with NCI-H460 lung and in the assay with OVCAR-5 ovarian was greater than 100 µM each time.

Consider `Cc1ccc(C)n1-c1ccccc1C1C=Cn2c(=O)oc3c(OC(C)C)c(OC(C)C)c(O)c1c32` (stereo unspecified), for which the TGI in the assay on HCC-2998 colon was greater than 100 µM; in the assay with HS 578T breast, greater than 100 µM; in the assay on NCI-H226 lung, 36.1 µM; with A549 NSCLC, greater than 100 µM; with LOX IMVI melanoma, 38.4 µM; in the assay on NCI-H23 lung it was greater than 100 µM. Further, the TGI with NCI-H460 lung, with OVCAR-5 ovarian and with MCF7 breast was greater than 100 µM each time.

In the case of `CC1(C)C2CC3C(C)(C2)C31c1cc(Cl)ccc1N` (stereo unspecified), the TGI in the assay with HCC-2998 colon turned out to be 28.2 µM; with T-47D breast, 26.2 µM; in the assay on NCI-H226 lung it was 34.6 µM; with A549 NSCLC, 24.2 µM; with LOX IMVI melanoma, 30.5 µM; with NCI-H23 lung, 26 µM. Moreover, the TGI with NCI-H460 lung was determined as 28.9 µM; in the assay with OVCAR-5 ovarian it was 29.4 µM; in the assay with MCF7 breast, 26.7 µM.
